The values below come from patent US20110105509A1 (Wyeth, LLC, priority 2009, published 2011).

This test has as its target T1, CRTH2 (Homo sapiens, UniProt Q9Y5Y4).
T1 construct: expressed in transfected cells; host or cells: CHO cells
T1 sequence (Q9Y5Y4 1-395): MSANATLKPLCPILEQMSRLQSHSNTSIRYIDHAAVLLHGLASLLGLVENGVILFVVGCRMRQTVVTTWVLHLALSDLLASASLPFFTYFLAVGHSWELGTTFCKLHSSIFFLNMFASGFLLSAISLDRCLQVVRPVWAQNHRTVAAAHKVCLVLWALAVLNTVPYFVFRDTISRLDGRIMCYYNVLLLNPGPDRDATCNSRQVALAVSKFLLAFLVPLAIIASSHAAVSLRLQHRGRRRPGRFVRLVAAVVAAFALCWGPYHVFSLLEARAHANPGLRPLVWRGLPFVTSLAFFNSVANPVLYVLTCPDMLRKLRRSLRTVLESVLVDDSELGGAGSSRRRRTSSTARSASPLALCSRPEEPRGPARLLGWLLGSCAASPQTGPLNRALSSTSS
The test is described as follows: FRET based competitive immunoassay (cAMP) in CRTH2 expressing CHO cells. Type of test: cell-based. Conditions: CRTH2 expressing CHO cells incubated with forskolin and PGD2; Eu3+ cryptate-labeled anti-cAMP and d2-labeled cAMP. How it is done: FRET Assay: To evaluate potency compounds were tested in a FRET based competitive immunoassay in which CRTH2 expressing CHO cells were incubated in the presence of forskolin and PGD2 along with Eu3+ cryptate-labeled anti-cAMP and d2-labeled cAMP.
`Cc1c(-c2nn(Cc3ccc(OC(F)(F)F)cc3)c(=O)c3ccccc23)c2cc(Cl)ccc2n1CC(=O)O` [Example 102, 2-(5-chloro-2-methyl-3-(4-oxo-3-(4-(trifluoromethoxy)benzyl)-3,4-dihydrophthalazin-1-yl)-1H-indol-1-yl)acetic acid]: the IC50 (commonly the concentration at which inhibition is half-maximal) was determined as 27 nM.

`CCn1nc(-c2c(C)n(CC(=O)O)c3ccc(Cl)cc23)ccc1=O` [Example 150, 2-(5-chloro-3-(1-ethyl-6-oxo-1,6-dihydropyridazin-3-yl)-2-methyl-1H-indol-1-yl)acetic acid] displayed an IC50 of 559 nM.

With `Cc1c(Cc2ccc(=O)n(Cc3ccc(F)c(F)c3)c2)c2ccccc2n1CC(=O)O` [Example 30, 2-(3-((1-(3,4-Difluorobenzyl)-6-oxo-1,6-dihydropyridin-3-yl)methyl)-2-methyl-1H-indol-1-yl)acetic acid], the IC50 stood at 153 nM.

`Cc1c(Cc2ccc(=O)n(CC(C)(C)O)n2)c2cc(F)ccc2n1CC(=O)O` [Example 197, (5-fluoro-3-{[1-(2-hydroxy-2-methylpropyl)-6-oxo-1,6-dihydropyridazin-3-yl]-methyl}-2-methyl-1H-indol-1-yl)acetic acid] displayed an IC50 of 270 nM. Compared with the last compound, the IC50 is about 1.8-fold higher.

For `Cc1c(-c2ccc(OC(C)C)nc2)c2cc(F)ccc2n1CC(=O)O` [Example 277], the IC50 worked out at 71 nM.

In turn, `Cc1c(-c2ccc(=O)n(Cc3cc(F)ccc3F)n2)c2cc(Cl)ccc2n1CC(=O)O` [Example 67, 2-(5-chloro-3-(1-(2,5-difluorobenzyl)-6-oxo-1,6-dihydropyridazin-3-yl)-2-methyl-1H-indol-1-yl)acetic acid] displayed an IC50 of 23 nM.

Regarding `Cc1c(-c2ccc(=O)n(CCCC(F)(F)F)c2)c2cc(F)ccc2n1CC(=O)NS(=O)(=O)C1CC1` [Example 317, N-(cyclopropylsulfonyl)-2-(5-fluoro-2-methyl-3-(6-oxo-1-(4,4,4-trifluorobutyl)-1,6-dihydropyridin-3-yl)-1H-indol-1-yl)acetamide], the IC50 was greater than 1000 nM.

In turn, `Cc1c(-c2ccc(=O)n(Cc3cccc(F)c3F)c2)c2cc(F)ccc2n1CC#N` [Example 310, 2-(3-(1-(2,3-difluorobenzyl)-6-oxo-1,6-dihydropyridin-3-yl)-5-fluoro-2-methyl-1H-indol-1-yl)acetonitrile] gave an IC50 greater than 1000 nM.

Consider `Cc1c(-c2ccc(=O)n(CCOc3ccc(Cl)cc3)n2)c2cc(Cl)ccc2n1CC(=O)O` [Example 140, 2-(5-chloro-3-(1-(2-(4-chlorophenoxy)ethyl)-6-oxo-1,6-dihydropyridazin-3-yl)-2-methyl-1H-indol-1-yl)acetic acid], for which the IC50 amounted to 16 nM.

Take `Cc1c(-c2ccc(=O)n(C(C)C)c2)c2cc(Cl)ccc2n1CC(=O)O` [Example 278, 2-(5-chloro-3-(1-isopropyl-6-oxo-1,6-dihydropyridin-3-yl)-2-methyl-1H-indol-1-yl)acetic acid]: the IC50 worked out at 198 nM.

Compound `CCn1nc(-c2c(C)n(CC(=O)O)c3ccc(F)cc23)c2ccccc2c1=O` [Example 121, 2-(3-(3-ethyl-4-oxo-3,4-dihydrophthalazin-1-yl)-5-fluoro-2-methyl-1H-indol-1-yl)acetic acid] returned an IC50 of 55 nM.

`Cc1c(-c2ccc(=O)n(Cc3cccc(F)c3F)c2)c2cc(F)ccc2n1CCC(=O)O` [Example 303, 3-(3-(1-(2,3-difluorobenzyl)-6-oxo-1,6-dihydropyridin-3-yl)-5-fluoro-2-methyl-1H-indol-1-yl)propanoic acid]: the IC50 was greater than 2000 nM.

For `CCn1nc(-c2c(C)n(CC(=O)O)c3ccc(F)cc23)ccc1=O` [Example 160, 2-(3-(1-ethyl-6-oxo-1,6-dihydropyridazin-3-yl)-5-fluoro-2-methyl-1H-indol-1-yl)acetic acid], the IC50 is 375 nM.

As for `Cc1c(-c2nn(C3CC3)c(=O)c3ccccc23)c2ccccc2n1CC(=O)O` [Example 178, 2-(3-(3-cyclopropyl-4-oxo-3,4-dihydrophthalazin-1-yl)-2-methyl-1H-indol-1-yl)-acetic acid], the IC50 was determined as 215 nM. Compared with the last compound, the IC50 is about 1.7-fold lower.

Compound `Cc1c(-c2ccc(=O)n(Cc3ccccc3)c2)c2cc(F)ccc2n1CC(=O)NS(=O)(=O)c1ccccc1` [Example 312, 2-(3-(1-benzyl-6-oxo-1,6-dihydropyridin-3-yl)-5-fluoro-2-methyl-1H-indol-1-yl)-N-(phenylsulfonyl)acetamide] displayed an IC50 greater than 1000 nM.

On to `Cc1c(-c2nn(CCc3ccccc3)c(=O)c3ccccc23)c2cc(F)ccc2n1CC(=O)O` [Example 226, 2-(5-fluoro-2-methyl-3-(4-oxo-3-phenethyl-3,4-dihydrophthalazin-1-yl)-1H-indol-1-yl)acetic acid], for which the IC50 is 2 nM.

For `Cc1c(-c2nn(Cc3nnc[nH]3)c(=O)c3ccccc23)c2cc(Cl)ccc2n1CC(=O)O` [Example 259a, 2-(3-(3-((4H-1,2,4-triazol-3-yl)methyl)-4-oxo-3,4-dihydrophthalazin-1-yl)-5-chloro-2-methyl-1H-indol-1-yl)acetic acid], the half-inhibitory concentration (IC50) worked out at 61 nM. This IC50 is about 30-fold higher than that of the compound before.

With `Cc1c(Cc2ccc(=O)n(Cc3ccc(F)cc3F)c2)c2cc(Cl)ccc2n1CC(=O)O` [Example 42, 2-(5-Chloro-3-((1-(2,4-difluorobenzyl)-6-oxo-1,6-dihydropyridin-3-yl)-methyl)-2-methyl-1H-indol-1-yl)acetic acid], the IC50 is 7 nM. This IC50 is about 8.7-fold lower than that of the compound before.

`Cc1c(Cc2ccc(=O)n(Cc3cccc(F)c3F)c2)c2cc(Cl)ccc2n1CC(=O)O` [Example 43, 2-(5-Chloro-3-((1-(2,3-difluorobenzyl)-6-oxo-1,6-dihydropyridin-3-yl)-methyl)-2-methyl-1H-indol-1-yl)acetic acid]: the IC50 was found to be 9 nM. This IC50 and that of the compound before are within 1.5-fold of each other.

With `Cc1c(-c2cn(C(C)C)c(=O)c3c2CCCC3)c2cc(F)ccc2n1CC(=O)O` [Example 91, 2-(5-fluoro-3-(2-isopropyl-1-oxo-1,2,5,6,7,8-hexahydroisoquinolin-4-yl)-2-methyl-1H-indol-1-yl)acetic acid], the half-maximal inhibitory concentration (IC50) was 107 nM. Against the preceding compound, the IC50 is about 12-fold higher.

As to `CCn1nc(-c2c(C)n(CC(=O)O)c3ccc(Cl)cc23)c2ccccc2c1=O` [Example 106, 2-(5-Chloro-3-(3-ethyl-4-oxo-3,4-dihydrophthalazin-1-yl)-2-methyl-1H-indol-1-yl)acetic acid], the concentration for half-maximal inhibition (IC50) is 23 nM.

Take `Cc1c(-c2nn(Cc3ccc(Cl)cc3)c(=O)c3ccccc23)c2cc(F)ccc2n1CC(=O)O` [Example 4, 2-(3-(3-(4-Chlorobenzyl)-4-oxo-3,4-dihydropthalazin-1-yl)-5-fluoro-2-methyl-1H-indol-1-yl)acetic acid]: the IC50 came out at 9 nM.

`Cc1c(-c2ccc(=O)n(CCOc3ccc(Cl)cc3)n2)c2cc(F)ccc2n1CC(=O)O` [Example 152, 2-(3-(1-(2-(4-chlorophenoxy)ethyl)-6-oxo-1,6-dihydropyridazin-3-yl)-5-fluoro-2-methyl-1H-indol-1-yl)acetic acid]: the 50% inhibitory concentration (IC50) came out at 12 nM. The IC50 values of the last two compounds are within 1.5-fold of each other.

`Cc1c(-c2ccc(=O)n(Cc3ccccc3C(F)(F)F)n2)c2cc(F)ccc2n1CC(=O)O` [Example 216, 2-(5-fluoro-2-methyl-3-(6-oxo-1-(2-(trifluoromethyl)benzyl)-1,6-dihydropyridazin-3-yl)-1H-indol-1-yl)acetic acid] showed an IC50 of 14 nM. The IC50 values of the last two compounds are within 1.5-fold of each other.

As for `Cc1c(Cc2ccc(=O)n(Cc3ccc(F)cc3F)n2)c2cc(F)cc(F)c2n1CC(=O)O` [Example 242, 2-(3-((1-(2,4-difluorobenzyl)-6-oxo-1,6-dihydropyridazin-3-yl)methyl)-5,7-difluoro-2-methyl-1H-indol-1-yl)acetic acid], the IC50 was found to be 28 nM. This IC50 is about 2-fold higher than that of the compound before.

For `Cc1c(-c2ccc(=O)n(Cc3cccc(F)c3)c2)c2cc(Cl)ccc2n1CC(=O)O` [Example 295, 2-(5-chloro-3-(1-(3-fluorobenzyl)-6-oxo-1,6-dihydropyridin-3-yl)-2-methyl-1H-indol-1-yl)acetic acid], the IC50 turned out to be 11 nM. This IC50 is about 2.5-fold lower than that of the compound before.

`Cc1c(-c2nn(Cc3ccc(Cl)c(F)c3)c(=O)c3ccccc23)c2cc(Cl)ccc2n1CC(=O)O` [Example 2, 2-(5-Chloro-3-(3-(4-chloro-3-fluorobenzyl)-4-oxo-3,4-dihydrophthalazin-1-yl)-2-methyl-1H-indol-1-yl)acetic acid] returned an IC50 of 18 nM.

`Cc1c(Cc2ccc(=O)n(Cc3ccc(F)cc3)c2)c2cc(F)ccc2n1CC(=O)O` [Example 41, 2-(5-Fluoro-3-((1-(4-fluorobenzyl)-6-oxo-1,6-dihydropyridin-3-yl)methyl)-2-methyl-1H-indol-1-yl)acetic acid]: the IC50 was 3 nM.

As for `Cc1c(Cc2ccc(=O)n(Cc3cccc(F)c3F)n2)c2cc(F)ccc2n1CC(=O)O` [Example 339, (3-{[1-(2,3-difluorobenzyl)-6-oxo-1,6-dihydropyridazin-3-yl]methyl}-5-fluoro-2-methyl-1H-indol-1-yl)acetic acid], the IC50 was 4 nM.

`Cc1c(-c2ccc(=O)n(Cc3cccc(F)c3F)c2)c2cc(F)ccc2n1CC(=O)N1CCCC1` [Example 299, 1-(2,3-difluorobenzyl)-5-(5-fluoro-2-methyl-1-(2-oxo-2-(pyrrolidin-1-yl)-ethyl)-1H-indol-3-yl)pyridin-2(1H)-one] gave an IC50 greater than 2000 nM.

`Cc1c(-c2ccc(=O)n(CCc3ccccc3)n2)c2ccccc2n1CC(=O)O` [Example 228, 2-(2-methyl-3-(6-oxo-1-phenethyl-1,6-dihydropyridazin-3-yl)-1H-indol-1-yl)acetic acid] had an IC50 of 147 nM.
